Values quoted from earlier work as cited in patent US11357716B2, “Sunscreen compositions” (Kobo Products, Inc., priority 2016, dated 2022).

Columns and labels:
[1] = Active: BEMT 4%
[2] = Active: BEMT 4%; remark: listed apart in the source

CCCCC(CC)COc1ccc(-c2nc(-c3ccc(OC)cc3)nc(-c3ccc(OCC(CC)CCCC)cc3O)n2)c(O)c1 (centres unmarked) [BEMT, bis-ethylhexyloxyphenol methoxyphenyl triazine]
SPF in vivo [1]: in vivo = 7.3 ± 1.2
UVA-PF in vivo [2]: in vivo = 7.6 ± 2.2
